# Results reported in ChEMBL document CHEMBL1147191, “Structure-activity relationship studies on anti-HCV activity of ring-expanded ('fat') nucleobase analogues containing the imidazo[4,5-e][1,3]diazepine-4,8-dione ring system” (Bioorg Med Chem Lett, 2007).
# Columns and labels:
# [1] = Cytotoxicity against Huh7 ET cells assessed as beta actin level relative to control; format: cell-based; design: concentration or dose not given beside the values; conditions: human
# Hepatitis C virus = assay: Antiviral activity against HCV in Huh7 ET cells assessed as HCV RNA derived luciferase activity at 10 uM by replicon assay relative to control; format: functional, Hepacivirus hominis
# [2] = Selectivity index, ratio of toxicity against Huh7 ET cells to viral activity against HCV; format: functional
Compound,Activity [1] [%],Activity (Hepatitis C virus) [%],Selectivity index [2]
CCCCCCCCNc1nc(=O)c2c(nc(Br)n2Cc2ccc(OC)cc2)c(=O)[nH]1,69,32,2.155
CCCCCCCCNc1nc(=O)c2c(nc(C#CCCO)n2Cc2ccc(OC)cc2)c(=O)[nH]1,52,90,0.578
CCCCCCCCNc1nc(=O)c2c(nc(-c3ccccc3)n2Cc2ccc(OC)cc2)c(=O)[nH]1,82,88,0.932
CCCCCCCCNc1nc(=O)c2c(nc(-c3ccc(OC)cc3)n2Cc2ccc(OC)cc2)c(=O)[nH]1,79,54,1.463
NC(=O)c1ncn([C@@H]2O[C@H](CO)[C@@H](O)[C@H]2O)n1 [RIBAVIRIN],12,89,0.42
